According to patent US4783482A, “Bis(thiocyanato)palladium(II)complexes” (Engelhard Corporation, priority 1985, dated 1988):

Tested on: S180 ascites
Assay: Anti-tumor evaluation: % increase in life span (% ILS) and survivors, S180 ascites in female CFW Swiss mice
Assay type: in vivo
Conditions: for Best % ILS: best over doses
Description: The above-prepared compounds were evaluated against S180 ascites in female CFW Swiss mice. The mice were weighed (average weight: 20 g), placed into cages (four or six mice to a cage), and on day zero the mice were inoculated with 0.2 ml of a freshly prepared saline suspension (0.15 M NaCl) containing 1×10^7 tumor cells/ml or a total of 2×10^6 cells This inoculum was freshly prepared using "transfer" mice, which had been injected with tumor cells the previous week; it was obtained via the following steps: (1) the removal of cells from the peritoneal cavity of the sacrificed transfer mouse, (2) alternate centrifugation and washing operations (2-3 times with cold saline) to remove blood and other components, and (3) dilution of the volume of the packed cell with saline (1:3). A final centrifugation was carried out at 1000 RPM over a two minute period. A cell count was made on a 2,000-fold dilution of this 1:3 suspension by means of a Coulter Counter. A final dilution to 1×10^7 cells/ml was made, based on the average count.
On day 1, solutions of the test compounds were prepared, and each mouse in a set of four or six were injected with the same test compound at the same dosage. The doses were based on the average weight of the animals (cage weight). Also, beginning on day 1, two controls were employed containing six mice per control:
(1) Normal Control: This consisted solely of the carrier or diluent used in combination with the test compound; and
(2) Positive Control: This consisted solely of known anti-tumor agent cis-[Pt(NH3)2 Cl2 ] in saline (8 mg/kg) to test the response of the biological system.
The effectiveness of a test compound was measured in terms of the % increase in life span (%ILS) of the test mice relative to the Normal Control (Calculated from the day of tumor inoculation, i.e., day zero). To standardize the test data and permit intercomparisons, the day of evaluation was arbitrarily taken as that day corresponding to twice the mean life span (or average day of death) of the control. This established a practical upper limit of 100% on the %ILS attainable. For calculation purposes, the survivors of the day of evaluation were considered to have died on that day. The %ILS was calculated as follows: [formula] ILS values in excess of 50% were interpreted as antitumor activity, whereas values in excess of 75% indicated excellent antitumor activity.
All test compounds were evaluated in water containing 0.1-0.3% of the suspending agent "Klucel" (hydroxypropylcellulose).
Tables 3 and 4, infra, show the criticality of the ring size and the thiocyanato substituents, respectively. The protocols for determining effectiveness for the products in Tables 3 and 4 were identical to the procedure employed for determining the anti-tumor effectiveness of the products in Table 2.

[1] = dose 10 mg/kg, on day of evaluation
[2] = dose 20 mg/kg, on day of evaluation
[3] = dose 40 mg/kg, on day of evaluation
[4] = dose 80 mg/kg, on day of evaluation
[5] = dose 160 mg/kg, on day of evaluation
[6] = dose 320 mg/kg, on day of evaluation
[7] = dose 5 mg/kg, on day of evaluation (twice mean life span of control)

Row | Structure (SMILES) | Best % ILS [%] | % ILS (dose 10 mg/kg) [%] | Survivors [1] | % ILS (dose 20 mg/kg) [%] | Survivors [2] | % ILS (dose 40 mg/kg) [%] | Survivors [3] | % ILS (dose 80 mg/kg) [%] | Survivors [4] | % ILS (dose 160 mg/kg) [%] | Survivors [5] | % ILS (dose 320 mg/kg) [%] | Survivors [6] | % ILS (dose 5 mg/kg) [%] | Survivors [7]
1 | N#C[S-].N#C[S-].NCCN.[Pd+2] [Ex. 1, Bis(Thiocyanato)ethylenediaminepalladium(II)] | 79 | 2 | 0 of 4 | 18 | 0 of 4 | 79 | 0 of 4 | 2 | 1 of 4 | -87 | 0 of 4 | -87 | 0 of 4 |  | 
2 | C[NH+]1CC[NH+](C)[Pd-2]1([S]C#N)[S]C#N (stereo not drawn) [Ex. 4, Bis(Thiocyanato)-N,N'-Dimethylethylenediaminepalladium(II)] | 62 | 1 | 0 of 6 | -5 | 0 of 6 | 18 | 1 of 6 | 62 | 2 of 6 | -45 | 1 of 6 |  |  | -2 | 0 of 6
3 | NC1CCCCC1N.O=[N+]([O-])[Pd][N+](=O)[O-] (stereo not drawn) [Comp. Ex. H, Dinitro(1,2-diaminocyclohexane)palladium(II)] |  | 12 | 0 of 4 | 3 | 0 of 4 | -3 | 0 of 4 | 21 | 0 of 4 |  |  |  |  |  | 
4 | N#C[S][Pd]1([S]C#N)[NH]CC(O)C[NH]1 [Comp. Ex. C, bis(thiocyanato)-1,3-diamino-2-propanolpalladium(II)] |  | -4 | 0 of 6 | -7 | 0 of 6 | -8 | 0 of 6 | -76 | 0 of 6 | -87 | 0 of 6 | -92 | 0 of 6 |  | 
5 | N#C[S][Pd-2]1([S]C#N)[NH2+]c2cccc3cccc(c23)[NH2+]1 [Comp. Ex. D, bis(thiocyanato)-1,8-diaminonaphthalenepalladium(II)] |  | -11 | 0 of 6 | -9 | 0 of 6 | -11 | 0 of 6 | -19 | 0 of 6 | -28 | 0 of 6 | 48 | 1 of 6 |  | 
6 | N#C[S-].N#C[S-].NCC(=O)CN.[Pd+2] [Comp. Ex. E, Bis(Thiocyanato)diaminoacetonepalladium(II)] |  | 8 | 0 of 4 | 13 | 0 of 4 | 3 | 0 of 4 | 1 | 0 of 4 | 13 | 0 of 4 |  |  | 3 | 0 of 4
7 | CC1C[NH][Pd]([S]C#N)([S]C#N)[NH]1 (stereo not drawn) [Ex. 2, Bis(Thiocyanato)-1,2-Diaminopropanepalladium(II)] | 59 | 13 | 0 of 6 | 17 | 0 of 6 | 59 | 2 of 6 | -21 | 1 of 6 | -74 | 0 of 6 |  |  | 16 | 0 of 6
8 | NCCN.[I-].[I-].[Pd+2] [Comp. Ex. L, Diiodo(ethylenediamine)palladium(II)] |  | -13 | 0 of 4 | -9 | 0 of 4 | -11 | 0 of 4 | 24 | 0 of 4 | 32 | 1 of 4 |  |  | -17 | 0 of 4
9 | NCCN.O=N[O-].O=N[O-].[Pd+2] [Comp. Ex. F, Dinitro(Ethylenediamine)palladium(II)] |  | 2 | 0 of 4 | 6 | 0 of 4 | -15 | 0 of 4 | -59 | 0 of 4 | -87 | 0 of 4 |  |  |  | 
10 | N#C[S][Pd][S]C#N.NCCCCN [Comp. Ex. B, bis(thiocyanato)-1,4-diaminobutanepalladium(II)] |  | -1 | 0 of 6 | 15 | 0 of 6 | -4 | 0 of 6 | -21 | 0 of 5 | 47 | 0 of 5 | 2 | 0 of 5 |  | 
11 | Nc1ccccc1N.O=N[O-].O=N[O-].[Pd+2] [Comp. Ex. I, dinitro(o-phenylenediamine)palladium(II)] |  | 21 | 0 of 4 | 3 | 0 of 4 | 29 | 1 of 4 | 19 | 0 of 4 |  |  |  |  |  | 
12 | [I][Pd]1([I])[NH]C2CCCCC2[NH]1 (stereo not drawn) [Comp. Ex. M, Diiodo(1,2-Diaminocyclohexane)palladium(II)] |  | -9 | 0 of 4 | -20 | 0 of 4 | -15 | 0 of 4 | -16 | 0 of 4 | 77 | 1 of 4 |  |  | -4 | 0 of 4
13 | N#C[S][Pd-2]1([S]C#N)[NH2+]CCC[NH2+]1 [Comp. Ex. A, bis(thiocyanato)-1,3-diaminopropanepalladium(II)] |  | 1 | 0 of 4 | 9 | 0 of 4 | -4 | 0 of 4 | -70 | 0 of 4 | -88 | 0 of 4 | -93 | 0 of 4 |  | 
14 | NCCCN.O=[N+]([O-])[Pd][N+](=O)[O-] [Comp. Ex. G, dinitro(1,3-diaminopropane)palladium(II)] |  | 13 | 0 of 4 | 16 | 0 of 4 | 27 | 0 of 4 | 0 | 1 of 4 | -89 | 0 of 4 |  |  |  | 
